Experiments:
Portulaca oleracea [1] = experiment: Herbicidal activity in pre-emergence; format: in vivo; conditions: dosage of 15 g/ha, fifteen days after the treatment, damage vs non-treated plants
Description: (§1) Determination of the Herbicidal Activity and Phytotoxicity in Pre-Emergence The herbicidal activity of the compounds of the invention in pre-emergence was evaluated according to the following operative procedures. The vegetable species of interest (weeds or crops) were sown in pots with an upper diameter of 10 cm, a height of 10 cm and containing sandy soil. 10 pots were used for each vegetable species. Water was added to each pot in such a quantity as to germinate the seeds. The pots were divided into two groups, each containing 5 pots for each weed or crop. After one day from the sowing, the first set of pots was treated with a hydro-acetonic dispersion containing acetone at 10% in volume, the product under evaluation at the desired concentration and Tween 20 at 0.5%. The second set was treated with a hydro-acetonic solution only, containing acetone at 10% in volume and Tween 20 at 0.5%, and was used as comparison (blank). All pots were kept under observation in a conditioned environment under the following conditions: temperature: 24° C.; relative humidity: 60%; photoperiod: 16 ore; light intensity: 10000 lux. The pots were uniformly watered in order to ensure a sufficient humidity degree for a good development of the plants.

Abutilon theofrasti [2] = experiment: Herbicidal activity in pre-emergence; format: in vivo; conditions: dosage of 15 g/ha, fifteen days after the treatment, damage vs non-treated plants
Description: as §1

Sida spinosa [3] = experiment: Herbicidal activity in pre-emergence; format: in vivo; conditions: dosage of 15 g/ha, fifteen days after the treatment, damage vs non-treated plants
Description: as §1

Solanum nigrum [4] = experiment: Herbicidal activity in pre-emergence; format: in vivo; conditions: dosage of 15 g/ha, fifteen days after the treatment, damage vs non-treated plants
Description: as §1

Ipomea purpurea [5] = experiment: Herbicidal activity in pre-emergence; format: in vivo; conditions: dosage of 15 g/ha, fifteen days after the treatment, damage vs non-treated plants
Description: as §1

Convolvulus sepium [6] = experiment: Herbicidal activity in pre-emergence; format: in vivo; conditions: dosage of 15 g/ha, fifteen days after the treatment, damage vs non-treated plants
Description: as §1

Chenopodium album [7] = experiment: Herbicidal activity in pre-emergence; format: in vivo; conditions: dosage of 15 g/ha, fifteen days after the treatment, damage vs non-treated plants
Description: as §1

Galium aparine [8] = experiment: Herbicidal activity in pre-emergence; format: in vivo; conditions: dosage of 15 g/ha, fifteen days after the treatment, damage vs non-treated plants
Description: as §1

Amaranthus retroflexus [9] = experiment: Herbicidal activity in pre-emergence; format: in vivo; conditions: dosage of 15 g/ha, fifteen days after the treatment, damage vs non-treated plants
Description: as §1

Portulaca oleracea [10] = experiment: Herbicidal activity in post-emergence; format: in vivo; conditions: dosage of 15 g/ha, fifteen days after the treatment, damage vs non-treated plants
Description: (§2) Determination of the Herbicidal Activity and Phytotoxicity in Post-Emergence The herbicidal activity of the compounds of the invention in post-emergence was evaluated according to the following operative procedures. The vegetable species of interest (weeds or crops) were sown in pots with an upper diameter of 10 cm, a height of 10 cm and containing sandy soil. 10 pots were used for each vegetable species. Water was added to each pot in such a quantity as to germinate the seeds. The pots were divided into two groups, each containing 5 pots for each weed or crop. Fifteen days after sowing (ten, in the case of wheat), when the weeds and crops, according to the species, were 10-15 cm high, the first set of pots was treated with a hydro-acetonic dispersion containing acetone at 10% in volume, the product under evaluation at the desired concentration and Tween 20 at 0.5%. The second set was treated with a hydro-acetonic solution only, containing acetone at 10% in volume and Tween 20 at 0.5%, and was used as comparison (blank). All pots were kept under observation in a conditioned environment under the following conditions: temperature: 24° C.; relative humidity: 60%; photo-period: 16 ore; light intensity: 10000 lux. The pots were uniformly watered every other day so as to ensure a humidity degree sufficient for a good development of the plants.

Abutilon theofrasti [11] = experiment: Herbicidal activity in post-emergence; format: in vivo; conditions: dosage of 15 g/ha, fifteen days after the treatment, damage vs non-treated plants
Description: as §2

Sida spinosa [12] = experiment: Herbicidal activity in post-emergence; format: in vivo; conditions: dosage of 15 g/ha, fifteen days after the treatment, damage vs non-treated plants
Description: as §2

Solanum nigrum [13] = experiment: Herbicidal activity in post-emergence; format: in vivo; conditions: dosage of 15 g/ha, fifteen days after the treatment, damage vs non-treated plants
Description: as §2

Ipomea purpurea [14] = experiment: Herbicidal activity in post-emergence; format: in vivo; conditions: dosage of 15 g/ha, fifteen days after the treatment, damage vs non-treated plants
Description: as §2

Convolvulus sepium [15] = experiment: Herbicidal activity in post-emergence; format: in vivo; conditions: dosage of 15 g/ha, fifteen days after the treatment, damage vs non-treated plants
Description: as §2

Chenopodium album [16] = experiment: Herbicidal activity in post-emergence; format: in vivo; conditions: dosage of 15 g/ha, fifteen days after the treatment, damage vs non-treated plants
Description: as §2

Galium aparine [17] = experiment: Herbicidal activity in post-emergence; format: in vivo; conditions: dosage of 15 g/ha, fifteen days after the treatment, damage vs non-treated plants
Description: as §2

Amaranthus retroflexus [18] = experiment: Herbicidal activity in post-emergence; format: in vivo; conditions: dosage of 15 g/ha, fifteen days after the treatment, damage vs non-treated plants
Description: as §2

Row | SMILES | Herbicidal activity in pre-emergence, PO (Portulaca oleracea [1]) | Herbicidal activity in pre-emergence, AT (Abutilon theofrasti [2]) | Herbicidal activity in pre-emergence, SS (Sida spinosa [3]) | Herbicidal activity in pre-emergence, SN (Solanum nigrum [4]) | Herbicidal activity in pre-emergence, IP (Ipomea purpurea [5]) | Herbicidal activity in pre-emergence, CA (Chenopodium album [7]) | Herbicidal activity in pre-emergence, GA (Galium aparine [8]) | Herbicidal activity in pre-emergence, AR (Amaranthus retroflexus [9]) | Herbicidal activity in post-emergence, PO (Portulaca oleracea [10]) | Herbicidal activity in post-emergence, AT (Abutilon theofrasti [11]) | Herbicidal activity in post-emergence, SS (Sida spinosa [12]) | Herbicidal activity in post-emergence, SN (Solanum nigrum [13]) | Herbicidal activity in post-emergence, IP (Ipomea purpurea [14]) | Herbicidal activity in post-emergence, CA (Chenopodium album [16]) | Herbicidal activity in post-emergence, AR (Amaranthus retroflexus [18]) | melting point [°C] | also measured
1 | COC(=O)/C=C(\COc1cc(-n2c(=O)cc(C(F)(F)F)n(C)c2=O)c(F)cc1Cl)OC [Compound No 2, methyl (2E)-4-{2-chloro-4-fluoro-5-[1,2,3,6-tetrahydro-3-methyl-2,6-dioxo-4-(trifluoromethyl)pyrimidin-1-yl]phenoxy}-3-methoxybut-2-enoate] | 5 (5=91% damage—death of the plant) | 5 (5=91% damage—death of the plant) | 5 (5=91% damage—death of the plant) | 5 (5=91% damage—death of the plant) | 5 (5=91% damage—death of the plant) | 5 (5=91% damage—death of the plant) | 5 (5=91% damage—death of the plant) | 5 (5=91% damage—death of the plant) | 4 (4=71-90% damage) | 5 (5=91% damage—death of the plant) | 5 (5=91% damage—death of the plant) | 5 (5=91% damage—death of the plant) | 5 (5=91% damage—death of the plant) | 5 (5=91% damage—death of the plant) | 5 (5=91% damage—death of the plant) |  | Herbicidal activity in pre-emergence, CS (Convolvulus sepium [6]): 5 (5=91% damage—death of the plant); Herbicidal activity in post-emergence, CS (Convolvulus sepium [15]): 5 (5=91% damage—death of the plant); Herbicidal activity in post-emergence, GA (Galium aparine [17]): 5 (5=91% damage—death of the plant)
2 | Cn1c(C(F)(F)F)cc(=O)n(-c2cc(OCc3nnc(C(C)(C)C)o3)c(Cl)cc2F)c1=O [Compound No 6, 3-{5-[(5-tert-butyl-1,3,4-oxadiazol-2-yl)methoxy]-4-chloro-2-fluorophenyl}-1-methyl-6-(trifluoromethyl)-2,4(1H,3H)-pyrimidinedione] | 5 (5=91% damage—death of the plant) | 5 (5=91% damage—death of the plant) | 5 (5=91% damage—death of the plant) | 5 (5=91% damage—death of the plant) | 4 (4=71-90% damage) | 5 (5=91% damage—death of the plant) | 5 (5=91% damage—death of the plant) | 4 (4=71-90% damage) | 4 (4=71-90% damage) | 5 (5=91% damage—death of the plant) | 4 (4=71-90% damage) | 5 (5=91% damage—death of the plant) | 5 (5=91% damage—death of the plant) | 4 (4=71-90% damage) | 3 (3=51-70% damage) |  | 
3 | Cn1nnc(-c2cc(-n3c(=O)cc(C(F)(F)F)n(C)c3=O)ccc2Cl)n1 [Compound No 13, 3-[4-chloro-3-(2-methyl-2H-tetrazol-5-yl)phenyl]-1-methyl-6-(trifluoromethyl)-2,4(1H,3H)-pyrimidinedione] | 5 (5=91% damage—death of the plant) | 5 (5=91% damage—death of the plant) | 5 (5=91% damage—death of the plant) | 5 (5=91% damage—death of the plant) | 5 (5=91% damage—death of the plant) | 5 (5=91% damage—death of the plant) | 5 (5=91% damage—death of the plant) | 5 (5=91% damage—death of the plant) | 5 (5=91% damage—death of the plant) | 5 (5=91% damage—death of the plant) | 5 (5=91% damage—death of the plant) | 5 (5=91% damage—death of the plant) | 5 (5=91% damage—death of the plant) | 5 (5=91% damage—death of the plant) | 5 (5=91% damage—death of the plant) | 192 | 
4 | CC(C)Cc1csc(-c2cc(-n3c(=O)cc(C(F)(F)F)n(C)c3=O)c(Cl)cc2Cl)n1 [Compound No 129, 3-[2,4-dichloro-5-(4-isobutyl-1,3-thiazol-2-yl)phenyl]-1-methyl-6-(trifluoromethyl) 2,4(1H,3H)-pyrimidinedione] |  |  |  |  |  |  |  |  |  |  |  |  |  |  |  | 167 | 
5 | CCOC(=O)c1sc(-c2cc(-n3c(=O)cc(C(F)(F)F)n(C)c3=O)ccc2Cl)nc1C [Compound No 131, ethyl 2-{2-chloro-5-[1,2,3,6-tetrahydro-3-methyl-2,6-dioxo-4-(trifluoromethyl)pyrimidin-1-yl]phenyl}-4-methyl-1,3-thiazole-5-carboxylate] |  |  |  |  |  |  |  |  |  |  |  |  |  |  |  | 200 | 
6 | Cn1c(C(F)(F)F)cc(=O)n(-c2cc(OCc3cc(C(C)(C)C)no3)c(Cl)cc2F)c1=O [Compound No 132, 3-{5-[(3-tert-butylisoxazol-5-yl)methoxy]-4-chloro-2-fluorophenyl}-1-methyl-6-(trifluoromethyl)-2,4(1H,3H)-pyrimidinedione] |  |  |  |  |  |  |  |  |  |  |  |  |  |  |  | 142 | 
7 | CC(C)c1cc(COc2cc(-n3c(=O)cc(C(F)(F)F)n(C)c3=O)c(F)cc2Cl)on1 [Compound No 133, 3-{4-chloro-2-fluoro-5-[(3-isopropylisoxazol-5-yl)methoxy]phenyl}-1-methyl-6-(trifluoromethyl)-2,4(1H,3H)-pyrimidinedione] |  |  |  |  |  |  |  |  |  |  |  |  |  |  |  | 128 | 
8 | CC(C)n1nnc(-c2cc(-n3c(=O)cc(C(F)(F)F)n(C)c3=O)ccc2Cl)n1 [Compound No 134, 3-[4-chloro-3-(2-isopropyl-2H-tetrazol-5-yl)phenyl]-1-methyl-6-(trifluoromethyl)-2,4(1H,3H)-pyrimidinedione] |  |  |  |  |  |  |  |  |  |  |  |  |  |  |  | 147 | 
9 | CCOC(=O)c1csc(-c2cc(-n3c(=O)cc(C(F)(F)F)n(C)c3=O)ccc2Cl)n1 [Compound No 156, ethyl 2-{2-chloro-5-[1,2,3,6-tetrahydro-3-methyl-2,6-dioxo-4-(trifluoromethyl)pyrimidin-1-yl]phenyl}-1,3-thiazole-4-carboxylate] |  |  |  |  |  |  |  |  |  |  |  |  |  |  |  | 197 | 
10 | CCCCn1nnc(-c2cc(-n3c(=O)cc(C(F)(F)F)n(C)c3=O)ccc2Cl)n1 [Compound No 157, 3-[3-(2-butyl-2H-tetrazol-5-yl)-4-chlorophenyl]-1-methyl-6-(trifluoromethyl)-2,4(1H,3H)-pyrimidinedione] |  |  |  |  |  |  |  |  |  |  |  |  |  |  |  | 108 | 

Source: US7754880B2, “Uracils having a herbicidal activity” (Isagro Ricerca S.r.l., priority 2002, dated 2010)
